# Like-named read-outs stand apart in the source and are kept apart here.
# Columns and labels:
# [1] = for ratio of AUC in tissue to AUC in plasma: bone, bone marrow, salivary gland, thyroid, spleen, kidney (each)
# Protocol: Sprague-Dawley rats (18 males) were given carbon-14 tigecycline at a dosage of 3 mg/kg by 30-minute infusion. Concentrations or radioactivity were determined in tissues of 3 rats/time point at the end of the infusion and at 1, 8, 24, 72, and 168 hours after the end of infusion.
# [2] = Whole body autoradiography after 30-minute 3 mg/kg IV infusion of [^14C]-tigecycline; assay type: in vivo, Long-Evans rats
# Protocol: Male Sprague-Dawley and Long-Evans rats were obtained from Charles River Breeding Laboratories, Raleigh, N.C., and were quarantined for at least one week prior to the start of the study. […] The dosing solution was diluted and radioassayed directly in Ultima Gold scintillation counting cocktail (Packard Inc.). […] All pumps were calibrated prior to the administration of the compound. Rats were anesthetized with isoflurane prior to cardiac puncture exsanguination at the prescribed times after dosing. Sprague-Dawley and Long-Evans rats were sacrificed one per time point at 0.5, 8.5, 24, 72, 168 and 336 hr post-dose. Immediately following euthanasia, each rat was totally immersed in a bath of hexane and dry ice (−75° C.) until frozen. Each carcass was dried and stored at −30° C. until embedded. […] Each frozen rat was sagitally sectioned at −20° C. A sufficient number of sections were collected to ensure sampling of all tissues of interest. The sections were dehydrated overnight in a cryochamber and then rapidly transferred to a dessicator containing CaSO4 to prevent condensation of atmospheric moisture while equilibrating to room temperature. The sections were mounted on cardboard and labeled with [^14C]-labeled black ink with a unique identification number. […] A small piece of Scotch tape was placed over the dried radioactive ink to prevent the contamination of the storage phosphor screens. Phosphor imaging plates, BAS-SR 2025 (Fuji Photo Film Co., Japan) were exposed to bright visible light for 20 minutes using an IP eraser (Raytest, USA Inc., New Castle, Del.) to remove background radiation. Sections and calibration blood standards were concurrently placed in direct contact with Ips and exposed for 7 days. All sections were stored at room temperature in a lead shielding box to minimize background levels. Phosphor images were generated using a Fujifilm BAS-5000 Bio-Imaging Analyzer and quantitated by MCID M2 Software, version 3.2 (Imaging Research Inc., St. Catherines, Ontario, Canada). The STDs and QCs were analyzed using the circular sampling tool in the MCID software program. Areas of interest in whole-body sections were manually outlined with the regional sampling tool to generate count data. Radioactive concentrations in select tissues were determined by digital analysis of the resulting autoradiograms on the basis of a calibration curve. […] The linear regression curve was then used to determine the concentration of unknown radioactivity of study samples. […] Blood samples were combusted using a Model 307 sample oxidizer (Packard Instrument Company). […] Research Triangle Park, N.C.), which applies a model-independent approach and standard procedures as described in Gibaldi and Perrier. Gibaldi, Pharmacokinetics, 1982. […] For IV infusion dosing, C30 min was the concentration at 30 minutes, the first sampling time point. The maximum plasma concentration (Cmax) and the corresponding time of peak concentration following IV administration were obtained directly by numerical inspection from the individual concentration-time data. The terminal half-life was calculated by the ratio of ln2/λz where λz is derived from the terminal slope of the concentration time curve. The area under the plasma concentration versus time curve from zero to infinity was calculated using the trapezoidal rule, where Clast is the last measurable plasma concentration. Tissue to plasma concentration ratios were calculated according to the following equation: Ctissue/Cplasma, where Ctissue equals the drug concentration in tissue (ng equiv./g), and Cplasma equals the drug concentration in plasma (ng equiv./g).
smiles,measurement,setting,value
CN(C)c1cc(NC(=O)CNC(C)(C)C)c(O)c2c1C[C@H]1C[C@H]3[C@H](N(C)C)C(O)=C(C(N)=O)C(=O)[C@@]3(O)C(O)=C1C2=O [[^14C]-Tigecycline],ratio of AUC in tissue to AUC in plasma,[1],greater than 10
same,ratio of AUC in tissue to AUC in plasma,[1]; listed as carbon-14 tigecycline,> 10
same,ratio of AUC in lung to AUC in plasma,[1]; lung,4.4
same,AUC,[2]; Blood,21954 Ng eq hr/g
same,T1/2,[2]; Blood,62 h
same,Mean concentration of total radioactivity,"[2]; Blood, 0.5 Hrs",1296 ng equiv./g
same,Tissue:Plasma Ratio,"[2]; Blood, 0.5 Hrs",1.33
same,Mean concentration of total radioactivity,"[2]; Blood, 24 Hrs",340 ng equiv./g
same,Tissue:Plasma Ratio,"[2]; Blood, 24 Hrs",4.81
same,Mean concentration of total radioactivity,"[2]; Blood, 72 Hrs",11.8 ng equiv./g
same,Tissue:Plasma Ratio,"[2]; Blood, 72 Hrs",5.05
same,Mean concentration of total radioactivity,"[2]; Blood, 168 Hrs",2.72 ng equiv./g
same,Tissue:Plasma Ratio,"[2]; Blood, 168 Hrs",5.05
same,Mean concentration of total radioactivity,"[2]; Blood, 336 Hrs",1.24 ng equiv./g
same,AUC,"[2]; Blood, first AUC column",21843 Ng eq hr/g
same,AUC,[2]; Plasma,12938 Ng eq hr/g
same,T1/2,[2]; Plasma,19 h
same,Mean concentration of total radioactivity,"[2]; Plasma, 0.5 Hrs",975 ng equiv./g
same,Tissue:Plasma Ratio,"[2]; Plasma, 0.5 Hrs",1.00
same,Mean concentration of total radioactivity,"[2]; Plasma, 24 Hrs",70.5 ng equiv./g
same,Tissue:Plasma Ratio,"[2]; Plasma, 24 Hrs",1.00
same,Mean concentration of total radioactivity,"[2]; Plasma, 72 Hrs",4.31 ng equiv./g
same,Tissue:Plasma Ratio,"[2]; Plasma, 72 Hrs",1.00
same,Mean concentration of total radioactivity,"[2]; Plasma, 168 Hrs",<1.03 ng equiv./g
same,Tissue:Plasma Ratio,"[2]; Plasma, 168 Hrs",1.00
same,Mean concentration of total radioactivity,"[2]; Plasma, 336 Hrs",<1.03 ng equiv./g
same,AUC,"[2]; Plasma, first AUC column",12923 Ng eq hr/g
same,AUC,[2]; Skin,109296 Ng eq hr/g
same,Cmax,[2]; Skin,1997 Ng equiv/g
same,T1/2,[2]; Skin,473 h
same,tissue concentration at 336 hours as % of Cmax,[2]; Skin,8%
same,Mean concentration of total radioactivity,"[2]; Skin, 0.5 Hrs",2502 ng equiv./g
same,Tissue:Plasma Ratio,"[2]; Skin, 0.5 Hrs",2.05
same,Mean concentration of total radioactivity,"[2]; Skin, 24 Hrs",2363 ng equiv./g
same,Tissue:Plasma Ratio,"[2]; Skin, 24 Hrs",8.76
same,Mean concentration of total radioactivity,"[2]; Skin, 72 Hrs",1787 ng equiv./g
same,Tissue:Plasma Ratio,"[2]; Skin, 72 Hrs",179
same,Mean concentration of total radioactivity,"[2]; Skin, 168 Hrs",351 ng equiv./g
same,Tissue:Plasma Ratio,"[2]; Skin, 168 Hrs",179
same,Mean concentration of total radioactivity,"[2]; Skin, 336 Hrs",211 ng equiv./g
same,AUC,"[2]; Skin, first AUC column",58287 Ng eq hr/g
same,AUC,[2]; Uveal Tract,233288 Ng eq hr/g
same,Cmax,[2]; Uveal Tract,2502 Ng equiv/g
same,T1/2,[2]; Uveal Tract,201 h
same,tissue concentration at 336 hours as % of Cmax,[2]; Uveal Tract,1%
same,Mean concentration of total radioactivity,"[2]; Uveal Tract, 0.5 Hrs",1997 ng equiv./g
same,Tissue:Plasma Ratio,"[2]; Uveal Tract, 0.5 Hrs",2.57
same,Mean concentration of total radioactivity,"[2]; Uveal Tract, 24 Hrs",124 ng equiv./g
same,Tissue:Plasma Ratio,"[2]; Uveal Tract, 24 Hrs",25.7
same,Mean concentration of total radioactivity,"[2]; Uveal Tract, 72 Hrs",96.5 ng equiv./g
same,Tissue:Plasma Ratio,"[2]; Uveal Tract, 72 Hrs",393
same,Mean concentration of total radioactivity,"[2]; Uveal Tract, 168 Hrs",74.8 ng equiv./g
same,Tissue:Plasma Ratio,"[2]; Uveal Tract, 168 Hrs",393
same,Mean concentration of total radioactivity,"[2]; Uveal Tract, 336 Hrs",19.3 ng equiv./g
same,AUC,"[2]; Uveal Tract, first AUC column",131346 Ng eq hr/g
same,T1/2,"[2]; Uveal Tract, listed as [^14C]-tigecycline",20 h

# From patent publication US20050148553A1, “Use of tigecycline, alone, or in combination with rifampin to treat osteomyelitis and/or septic arthritis” (priority 2003, published 2005)
